# Reference: patent US9580395B2, “Compositions of dual thyrointegrin antagonists and use in vascular-associated disorders” (Vascular Vision Pharmaceutical Company, priority 2009, dated 2017)
# Columns and labels:
# [1] = test system: angiogenesis-induced by the growth factor basic fibroblast growth factor (FGF); assay: Inhibition of FGF-induced angiogenesis in the chick chorioallantoic membrane (CAM) model; assay type: in vivo; details: Gallus gallus; for inhibition at 0.25 µg/mL: FGF + compound 0.25 μg/ml; for inhibition at 250 µg/mL: 10 μl at 0.25 mg/ml added to FGF impregnated filter
# Procedure: To investigate the structure-activity relationships of novel dual Thyrointegrin inhibitors of the present invention, the effect of each compound on angiogenesis-induced by the growth factor basic fibroblast growth factor (FGF) was assessed in the CAM model as depicted in Table 1.
# The data in Table 1 represents a mean±standard deviation (SD), n=8 as compared to FGF alone (p<0.001; 10 μl from the different test compounds were added to the FGF impregnated sterile filter).
# The CAM system is a widely-used model in which the chick embryonic membrane is exposed to stimulatory and inhibitory compounds. Ten day-old fertilized chicken eggs (Sunrise Farms Inc, Catskill, N.Y.) were incubated at 37° C. and 55% relative humidity. In the dark, with the help of a candling lamp, a small hole was punctured in the area of the shell covering the air sac using a hypodermic needle. A second hole was punctured on the wider side of the egg above an avascular area of the embryonic membrane. An artificial air sac was created below the second hole by gently applying a vacuum to the first hole using a small rubber squeeze bulb. The vacuum caused the separation of the CAM from the shell. A window of approximately 1.0 cm^2 was cut in the shell over the dropped CAM with the use of a mini drill. The underlying CAM was accessed through this small window. Filter disks were punched from filter paper #1 (Whatman International, Ltd, United Kingdom), and then soaked in 3.0 mg/mL cortisone acetate solution (in 95% ethanol) and air-dried under sterile conditions. To induce angiogenesis, sterile filter disks were saturated with FGF and placed on the CAM using sterile forceps. As a control, disks were saturated with PBS without calcium or magnesium. The window was sealed with Highland Brand transparent tape. After 1 hour, 10 μL of inhibitor were applied topically to the FGF-stimulated CAM. After 48 hours, CAM tissue directly beneath the filter disk was harvested and placed in a 35-mm petri dish for evaluation of angiogenesis. Eight eggs were used per treatment.
# Digital Imaging and analysis: CAMs in petri dishes were examined using a SV6 stereomicroscope (Carl Zeiss Microlmaging, Inc) at 50× magnification. Digital images were captured using a 3-CCD color video camera system (Toshiba America, Inc, New York, N.Y.). The images were analyzed using Image-Pro Plus (Media Cybernetics, Inc). The number of branch points within a circular region superimposed on the area of the filter disk was counted for each treatment condition.
# [2] = target: cell surface receptor αvβ3 (Homo sapiens, UniProt P05106+P06756); details: literature (Rebbaa et al. 2008); cited from earlier work
# cell surface receptor αvβ3, sequence (P06756 31-889 limits assumed): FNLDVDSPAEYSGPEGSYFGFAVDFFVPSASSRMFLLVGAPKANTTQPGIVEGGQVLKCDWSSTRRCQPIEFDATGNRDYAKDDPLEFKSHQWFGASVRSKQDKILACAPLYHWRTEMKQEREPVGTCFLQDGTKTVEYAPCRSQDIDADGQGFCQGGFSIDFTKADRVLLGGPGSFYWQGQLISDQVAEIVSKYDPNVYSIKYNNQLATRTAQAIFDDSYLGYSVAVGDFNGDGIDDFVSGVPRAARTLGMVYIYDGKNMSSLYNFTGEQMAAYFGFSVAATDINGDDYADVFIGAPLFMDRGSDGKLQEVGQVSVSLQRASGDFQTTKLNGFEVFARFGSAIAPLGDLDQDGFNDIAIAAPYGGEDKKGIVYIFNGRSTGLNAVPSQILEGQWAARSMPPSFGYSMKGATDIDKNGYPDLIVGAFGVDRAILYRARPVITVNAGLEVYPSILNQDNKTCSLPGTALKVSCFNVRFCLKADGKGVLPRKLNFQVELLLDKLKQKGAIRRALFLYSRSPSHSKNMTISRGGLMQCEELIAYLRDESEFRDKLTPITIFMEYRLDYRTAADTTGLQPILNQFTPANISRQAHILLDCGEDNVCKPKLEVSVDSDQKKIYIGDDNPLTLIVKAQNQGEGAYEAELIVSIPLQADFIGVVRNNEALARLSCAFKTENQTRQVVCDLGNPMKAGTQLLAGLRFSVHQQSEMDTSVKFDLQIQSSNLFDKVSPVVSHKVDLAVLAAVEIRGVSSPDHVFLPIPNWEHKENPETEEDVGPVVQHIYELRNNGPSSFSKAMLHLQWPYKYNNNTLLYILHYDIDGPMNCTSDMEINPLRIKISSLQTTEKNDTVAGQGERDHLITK
# cell surface receptor αvβ3, sequence (P06756 891-1048 partner limits assumed): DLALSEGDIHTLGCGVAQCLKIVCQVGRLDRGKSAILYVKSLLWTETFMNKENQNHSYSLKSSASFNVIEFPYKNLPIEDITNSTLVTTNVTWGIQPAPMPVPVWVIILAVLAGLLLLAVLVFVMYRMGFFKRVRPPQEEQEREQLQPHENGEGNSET
# cell surface receptor αvβ3, sequence (P05106 27-788): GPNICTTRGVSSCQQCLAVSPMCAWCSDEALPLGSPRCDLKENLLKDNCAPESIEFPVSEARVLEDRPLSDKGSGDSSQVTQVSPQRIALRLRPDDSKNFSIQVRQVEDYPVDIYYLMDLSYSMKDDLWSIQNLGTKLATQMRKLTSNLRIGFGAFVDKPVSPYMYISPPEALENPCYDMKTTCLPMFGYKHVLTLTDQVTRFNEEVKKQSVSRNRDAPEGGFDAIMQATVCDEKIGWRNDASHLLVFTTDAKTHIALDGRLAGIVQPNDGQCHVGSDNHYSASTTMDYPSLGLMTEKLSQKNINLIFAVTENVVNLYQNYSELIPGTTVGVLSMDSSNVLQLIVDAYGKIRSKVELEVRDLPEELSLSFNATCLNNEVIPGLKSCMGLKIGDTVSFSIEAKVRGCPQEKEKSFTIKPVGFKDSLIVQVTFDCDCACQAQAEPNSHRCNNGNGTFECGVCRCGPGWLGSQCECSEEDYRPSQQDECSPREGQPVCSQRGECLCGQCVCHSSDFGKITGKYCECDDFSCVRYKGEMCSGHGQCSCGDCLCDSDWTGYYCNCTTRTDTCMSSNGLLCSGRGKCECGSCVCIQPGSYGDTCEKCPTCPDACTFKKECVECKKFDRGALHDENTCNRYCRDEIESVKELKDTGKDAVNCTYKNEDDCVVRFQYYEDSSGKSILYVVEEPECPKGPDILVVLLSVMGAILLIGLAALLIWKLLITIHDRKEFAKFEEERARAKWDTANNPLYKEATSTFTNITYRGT
# αvβ3 = αvβ3 (Homo sapiens, UniProt P05106+P06756); assay: Inhibition of αvβ3-mediated binding in a specific cell adhesion assay; assay type: cell-based; details: at 100 nM
# αvβ3, sequence (P06756 31-889 limits assumed): as the sequence (P06756 31-889 limits assumed) above
# αvβ3, sequence (P06756 891-1048 partner limits assumed): as the sequence (P06756 891-1048 partner limits assumed) above
# αvβ3, sequence (P05106 27-788): as the sequence (P05106 27-788) above
# [3] = 10 μl on FGF filter, mean ± SD, n=8, vs FGF alone
# [4] = post-ester hydrolysis to make the free acid
SMILES,inhibition at 0.1 µM (αvβ3),inhibition at 0.1 µM (αvβ3; [4]),inhibition at 250 µg/mL [1],"inhibition at 250 µg/mL [1, 4]",also measured
"O=C(O)Cc1cc(I)c(Oc2cc(I)c(O)c(I)c2)c(I)c1 [Tetrac, [4-(4-Hydroxy-3,5-diiodophenoxy)-3,5-diiodophenyl]acetic acid, reference compound]",,,,,"inhibition at 10 µg/mL ([1]; FGF + compound 10 μg/ml, 10 μl on FGF filter, mean ± SD, n=8, vs FGF alone): 85 ± 11%; affinity of binding to αvβ3 [2]: weak affinity"
"NC(N)=NCCOc1c(I)cc(Oc2c(I)cc(CC(=O)[O-])cc2I)cc1I.[Li+] [compound 21, Lithium [4-(4-{2-[(diaminomethylene)amino]ethoxy}-3,5-diiodophenoxy)-3,5-diiodophenyl]acetate]",,,,,"inhibition at 0.25 µg/mL [1, 3]: 75 ± 10%; melting point: 133 °C"
"NC(=O)NCCOc1c(I)cc(Oc2c(I)cc(CC(=O)O)cc2I)cc1I [compound 22, (4-{4-[2-(Carbamoylamino)ethoxy]-3,5-diiodophenoxy}-3,5-diiodophenyl)acetic acid]",,,,,"inhibition at 0.25 µg/mL [1, 3]: 74 ± 13%; melting point: 267 °C"
"NCCCOc1c(I)cc(Oc2c(I)cc(CC(=O)O)cc2I)cc1I [compound 23, {4-[4-(3-aminopropoxy)-3,5-diiodophenoxy]-3,5-diiodophenyl}acetic acid]",,,,,"inhibition at 0.25 µg/mL [1, 3]: 88 ± 11%"
CC(C)(C)OC(=O)NCCCOc1c(I)cc(Oc2c(I)cc(CC(=O)O)cc2I)cc1I [compound 30],66 ± 8%,,75 ± 7%,,
COC(=O)Cc1cc(I)c(Oc2cc(I)c(OCCCNCc3cccnc3)c(I)c2)c(I)c1 [compound 33],0%,,0%,,
O=C(O)Cc1cc(I)c(Oc2cc(I)c(OCCCNCc3cccnc3)c(I)c2)c(I)c1 [compound 34],,68 ± 7%,,95 ± 11%,

# The next lines start with results.
inhibition at 0.1 µM (αvβ3),inhibition at 0.1 µM (αvβ3; [4]),SMILES,inhibition at 250 µg/mL [1],"inhibition at 250 µg/mL [1, 4]",also measured
0%,,COC(=O)Cc1cc(I)c(Oc2cc(I)c(OCCCN)c(I)c2)c(I)c1 [compound 31],0%,,
,100%,NCCCOc1c(I)cc(Oc2c(I)cc(CC(=O)O)cc2I)cc1I [compound 32],,88 ± 8%,
0%,,COC(=O)Cc1cc(I)c(Oc2cc(I)c(OCCCN3CCSCC3)c(I)c2)c(I)c1 [compound 35],0%,,
,93 ± 8%,O=C(O)Cc1cc(I)c(Oc2cc(I)c(OCCCN3CCSCC3)c(I)c2)c(I)c1 [compound 36],,89 ± 10%,
1%,100%,CCN(CC)CCCOc1c(I)cc(Oc2c(I)cc(CC(=O)OC)cc2I)cc1I [compound 37],0%,83%,
